Measured values from US8637537B2, “Serine/threonine kinase inhibitors” (Genentech, Inc., priority 2011, dated 2014).
Where two headings read alike, the source gives them in different places.

How the values were obtained:
[1] = tested on: group I PAKs (PAK1-3) in EBC1 cells, MEK1 phosphorylation at S298; test: Cellular PAK assay: MEK1 (S298) phosphorylation in EBC1 cells, HTRF; format: cell-based; conditions: Homo sapiens, EBC-1, 2 h treatment, Example 66
Protocol: Group I PAKs (PAK1-3) are activated upon binding to the Rho GTPases, Rac1 and Cdc42. […] The inhibition of group I PAKs in EBC1 cells is assessed by detecting changes in the level of MEK1 phosphorylation at S298 using homogenous time-resolved fluorescence (HTRF). […] Following inhibitor treatment, cells were lysed with 25 μL of 1× cellular kinase lysis buffer (Cisbio) containing 1× cellular kinase blocking reagent (Cisbio). Cellular lysis was carried out at 4° C. for 2 h with constant shaking before lysate (16 μL) was transferred to white 384-well ProxiPlates™ (Perkin Elmer).

[2] = biological target: T1, human recombinant GST-PAK1-KD protein (Homo sapiens, UniProt Q13153); test: GST-PAK1-KD (kinase domain) biochemical assay, microfluidic mobility shift
T1 construct: residues #249-545 of human PAK1, UniProtKP/Swiss Q13153; His6 (N); made in house; host or cells: Sf9 insect cells, pAcGP67 baculovirus expression vector
T1 sequence (Q13153 249-545): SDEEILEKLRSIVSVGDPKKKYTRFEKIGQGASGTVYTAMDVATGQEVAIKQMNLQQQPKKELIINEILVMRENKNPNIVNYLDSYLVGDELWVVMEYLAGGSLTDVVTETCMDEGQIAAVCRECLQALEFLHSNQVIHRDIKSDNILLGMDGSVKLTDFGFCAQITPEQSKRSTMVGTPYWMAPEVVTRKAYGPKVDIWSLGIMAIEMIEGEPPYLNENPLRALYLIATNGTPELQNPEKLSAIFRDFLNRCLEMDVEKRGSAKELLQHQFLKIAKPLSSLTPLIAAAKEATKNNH

[3] = GST-PAK1-KD Inhibition Assay - Example 65, read-out: PAK1 inhibition Ki
[4] = Table II, PAK1 Ki class, read-out: Ki
[5] = Table I, PAK1 Ki class, read-out: Ki

| SMILES | IC50 [1] [nM] | Ki [2, 3] [nM] | Ki [2, 4] [nM] | Ki [2, 5] [nM] | Ki ([2]; Ki, Table I, PAK1 Ki class) [nM] |
| --- | --- | --- | --- | --- | --- |
| COCCc1cc(Nc2ccnc(N(C)Cc3ccc4[nH]cnc4c3Cl)n2)n[nH]1 [II-102, N^2-((4-chloro-1H-benzo[d]imidazol-5-yl)methyl)-N^4-(5-(2-methoxyethyl)-1H-pyrazol-3-yl)-N^2-methylpyrimidine-2,4-diamine] | 1500 | 63.3 | 50 to 250 | – | – |
| Fc1cnc(NCc2cc(Cl)cc3[nH]cnc23)nc1Nc1cc(C2CC2)[nH]n1 [II-23, N^2-((6-Chloro-1H-benzo[d]imidazol-4-yl)methyl)-N^4-(5-cyclopropyl-1H-pyrazol-3-yl)-5-fluoropyrimidine-2,4-diamine] | 188 | 36 | < 50 | – | – |
| CN(C)CCN(Cc1cc(F)cc2[nH]ncc12)c1nccc(Nc2cc([C@@H]3C[C@@H]3F)[nH]n2)n1 [II-73, N^2-(2-(dimethylamino)ethyl)-N^2-((6-fluoro-1H-indazol-4-yl)methyl)-N^4-(5-((1S,2S)-2-fluorocyclopropyl)-1H-pyrazol-3-yl)pyrimidine-2,4-diamine] | 419 | 13 | < 50 | – | – |
| Cc1n[nH]c2cc(Cl)cc(CNc3ncc(F)c(Nc4cc(C5CC5)[nH]n4)n3)c12 [II-24, N^2-((6-Chloro-3-methyl-1H-indazol-4-yl)methyl)-N^4-(5-cyclopropyl-1H-pyrazol-3-yl)-5-fluoropyrimidine-2,4-diamine] | 339 | 41.3 | < 50 | – | – |
| Clc1c(CNc2nccc(Nc3cc(C4CCCO4)[nH]n3)n2)ccc2[nH]cnc12 (stereo not drawn) [I-109, N^2-((4-chloro-1H-benzo[d]imidazol-5-yl)methyl)-N^4-(5-(tetrahydrofuran-2-yl)-1H-pyrazol-3-yl)pyrimidine-2,4-diamine] | 786 | 27.5 | – | < 50 | – |
| CN(Cc1ccc2[nH]cnc2c1Cl)c1nccc(Nc2cc(C(F)F)[nH]n2)n1 [II-81, N^2-((4-chloro-1H-benzo[d]imidazol-5-yl)methyl)-N^4-(5-(difluoromethyl)-1H-pyrazol-3-yl)-N^2-methylpyrimidine-2,4-diamine] | 235 | 19.7 | < 50 | – | – |
| Cc1cc(Nc2cc(C3CC3)[nH]n2)nc(N[C@@H](C)c2ccc3[nH]ccc3c2)n1 [I-7, (S)—N^2-(1-(1H-indol-5-yl)ethyl)-N^4-(5-cyclopropyl-1H-pyrazol-3-yl)-6-methylpyrimidine-2,4-diamine] | 212 | 13.5 | – | < 50 | – |
| c1cc(CNc2nccc(Nc3cc(C4CC4)[nH]n3)n2)c2nc[nH]c2c1 [I-39, N^2-((1H-benzo[d]imidazol-4-yl)methyl)-N^4-(5-cyclopropyl-1H-pyrazol-3-yl)pyrimidine-2,4-diamine] | 205 | 74.7 | – | 50 to 250 | – |
| CCOc1cc(Nc2ccnc(N(C)Cc3ccc4[nH]cnc4c3Cl)n2)n[nH]1 [II-33, N^2-((4-Chloro-1H-benzo[d]imidazol-5-yl)methyl)-N^4-(5-ethoxy-1H-pyrazol-3-yl)-N^2-methylpyrimidine-2,4-diamine] | 648 | 97.9 | 50 to 250 | – | – |
| c1cc(CNc2nccc(Nc3cc(C4CC4)[nH]n3)n2)c2cn[nH]c2c1 [I-59, N^2-((1H-Indazol-4-yl)methyl)-N^4-(5-cyclopropyl-1H-pyrazol-3-yl)pyrimidine-2,4-diamine] | 104 | 37 | – | < 50 | – |
| C[C@H](Nc1nccc(Nc2cc([C@H]3CC3(F)F)[nH]n2)n1)c1ccc2[nH]cnc2c1 [I-62, N^2—((S)-1-(1H-benzo[d]imidazol-5-yl)ethyl)-N^4-(5-((R)-2,2-difluorocyclopropyl)-1H-pyrazol-3-yl)pyrimidine-2,4-diamine] | 244 | 5.13 | – | < 50 | – |
| COCCN(Cc1cc(F)cc2[nH]ncc12)c1nccc(Nc2cc(C3CC3)[nH]n2)n1 [II-94, N^4-(5-cyclopropyl-1H-pyrazol-3-yl)-N^2-((6-fluoro-1H-indazol-4-yl)methyl)-N^2-(2-methoxyethyl)pyrimidine-2,4-diamine] | 64.1 | 36.8 | < 50 | – | – |
| CN(Cc1ccc2nc[nH]c2c1Cl)c1nccc(Nc2cc(CCC#N)[nH]n2)n1 [II-45, 3-(3-(2-(((4-Chloro-3H-benzo[d]imidazol-5-yl)methyl)(methyl)amino)pyrimidin-4-ylamino)-1H-pyrazol-5-yl)propanenitrile] | 1900 | 165 | 50 to 250 | – | – |
| CCN(Cc1ccc2[nH]cnc2c1Cl)c1nccc(Nc2cc(C(C)C)[nH]n2)n1 [II-11, N^2-((4-Chloro-1H-benzo[d]imidazol-5-yl)methyl)-N^2-ethyl-N^4-(5-isopropyl-1H-pyrazol-3-yl)pyrimidine-2,4-diamine] | 43 | 1.6 | < 50 | – | – |
| FC(F)(F)c1cc(Nc2cc(C3CC3)[nH]n2)nc(NCc2ccc3[nH]cnc3c2)n1 [I-11, N^2-((1H-benzo[d]imidazol-5-yl)methyl)-N^4-(5-cyclopropyl-1H-pyrazol-3-yl)-6-(trifluoromethyl)pyrimidine-2,4-diamine] | 917 | 33 | – | < 50 | – |
| Clc1cnc(NCc2ccc3[nH]cnc3c2Cl)nc1Nc1cc(C2CC2)[nH]n1 [I-106, 5-chloro-N^2-((4-chloro-1H-benzo[d]imidazol-5-yl)methyl)-N^4-(5-cyclopropyl-1H-pyrazol-3-yl)pyrimidine-2,4-diamine] | 1300 | 14.8 | – | < 50 | – |
| CCN(Cc1ccc2[nH]cnc2c1Cl)c1nccc(Nc2cc([C@@H]3C[C@@H]3F)[nH]n2)n1 [II-51, N^2-((4-chloro-1H-benzo[d]imidazol-5-yl)methyl)-N^2-ethyl-N^4-(5-((1S,2S)-2-fluorocyclopropyl)-1H-pyrazol-3-yl)pyrimidine-2,4-diamine] | 66.1 | 2.5 | < 50 | – | – |
| CN(Cc1ccc2[nH]cnc2c1Cl)c1nccc(Nc2cc(C3COC3)[nH]n2)n1 [II-2, N^2-[(4-Chloro-1H-benzimidazol-5-yl)methyl]-N^2-methyl-N4-[5-(oxetan-3-yl)-1H-pyrazol-3-yl]pyrimidine-2,4-diamine] | 475 | 7.1 | < 50 | – | – |
| C[C@H](Nc1nccc(Nc2cc(C3CC3)[nH]n2)n1)c1ccc2[nH]ccc2c1 [I-8, (S)—N^2-(1-(1H-indol-5-yl)ethyl)-N^4-(5-cyclopropyl-1H-pyrazol-3-yl)pyrimidine-2,4-diamine] | 133 | 15.1 | – | – | < 50 |
